These results are taken from patent US8268827B2, “Pyridazinone derivatives as PARP inhibitors” (Istituto di Ricerche di Biologia Molecolare P. Angeletti …, priority 2007, dated 2012).

Each structure is given as a SMILES string. Counter-ions that a name gives are not always drawn. Bounds are passed on as bounds.

One assay deals with T1, PARP-1 (Homo sapiens, UniProt P09874).
T1 construct: purchased Trevigen 4668-500-01
T1 sequence (P09874 whole entry): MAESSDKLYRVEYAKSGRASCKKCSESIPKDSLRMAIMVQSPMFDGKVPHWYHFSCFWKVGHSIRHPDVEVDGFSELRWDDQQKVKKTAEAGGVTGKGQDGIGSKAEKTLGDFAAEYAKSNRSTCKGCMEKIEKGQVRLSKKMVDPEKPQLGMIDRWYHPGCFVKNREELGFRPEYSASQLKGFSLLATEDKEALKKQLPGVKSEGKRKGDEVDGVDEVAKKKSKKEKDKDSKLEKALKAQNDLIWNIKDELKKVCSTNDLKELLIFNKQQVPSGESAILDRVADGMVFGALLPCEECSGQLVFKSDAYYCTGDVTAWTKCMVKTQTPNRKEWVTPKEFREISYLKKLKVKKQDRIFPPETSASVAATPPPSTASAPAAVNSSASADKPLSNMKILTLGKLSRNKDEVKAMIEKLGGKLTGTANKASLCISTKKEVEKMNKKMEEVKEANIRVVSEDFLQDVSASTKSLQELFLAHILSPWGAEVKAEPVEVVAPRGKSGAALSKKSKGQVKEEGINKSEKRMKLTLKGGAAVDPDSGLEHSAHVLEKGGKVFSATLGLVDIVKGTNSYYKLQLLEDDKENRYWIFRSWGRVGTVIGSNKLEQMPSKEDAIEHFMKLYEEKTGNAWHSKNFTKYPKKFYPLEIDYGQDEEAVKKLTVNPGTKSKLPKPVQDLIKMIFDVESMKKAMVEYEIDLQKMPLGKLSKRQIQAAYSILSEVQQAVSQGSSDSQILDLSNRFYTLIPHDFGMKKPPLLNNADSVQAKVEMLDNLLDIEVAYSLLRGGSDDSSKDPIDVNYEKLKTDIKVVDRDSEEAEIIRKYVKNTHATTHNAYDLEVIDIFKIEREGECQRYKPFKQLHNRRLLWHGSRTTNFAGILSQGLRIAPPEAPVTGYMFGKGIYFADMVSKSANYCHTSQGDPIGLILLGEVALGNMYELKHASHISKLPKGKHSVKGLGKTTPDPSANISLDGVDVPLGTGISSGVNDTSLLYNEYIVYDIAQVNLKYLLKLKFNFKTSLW
Description: PARP-1 SPA assay.
Conditions: not given
Type of assay: biochemical. How it is done:
Assay buffer: 100 mM Tris pH 8, 4 mM MgCl2, 4 mM Spermine, 200 mM KCl, 0.04% Nonidet P-40.
Nicotinamide-adenine dinucleotide (NAD)/DNA Mix: [^3H-NAD] (250 uCi/ml, 0.4 ul, Perkin-Elmer NET-443H), NAD (1.5 mM, 0.05 ul, SIGMA N-1511), Biotinylated-NAD (250 uM, 0.03 ul, Trevigen 4670-500-01), Activated calf thymus (1 mg/ml, 0.05 ul, Amersham Biosciences 27-4575), H2O (to 10 ul).
Developing Mix: Streptavidin SPA beads (5 mg/ml, Amersham Biosciences RPNQ 0007) dissolved in 500 mM EDTA.
The reaction is performed in 96-well microplate with a final volume of 50 uL/well. Add 5 ul 5% DMSO/compound solution, add enzyme mix (35 ul), start the reaction by adding NAD/DNA mix (10 uL) and incubate for 2 hrs at RT. Stop the reaction by adding developing mix (25 ul) and incubate 15 min at RT. Measure using a Packard TOP COUNT instrument.
With `CCN1CCN(C(=O)c2cc(Cc3n[nH]c(=O)c(C(F)(F)F)c3C)ccc2F)CC1=O` [Example 143, 6-{3-[(4-Ethyl-3-oxopiperazin-1-yl)carbonyl]-4-fluorobenzyl}-5-methyl-4-(trifluoromethyl)pyridazin-3(2H)-one], the IC50 (as a rule, the concentration that inhibits the measured activity by half) was 5 to 25 nM.

In turn, `Cc1c(Cc2ccc(F)c(C(=O)N3CCN(C)C(=O)C3)c2)n[nH]c(=O)c1C` [Example 7, 3-{4-Fluoro-3-[(4-methyl-3-oxopiperazin-1-yl)carbonyl]benzyl}-4,5-dimethyl-6-oxo-1,6-dihydropyridazin-1-ium trifluoroacetate] yielded an IC50 of 5 to 25 nM.

`Cc1c(Cc2ccc(F)c(C(=O)N3CCCN(C4CC4)C(=O)C3)c2)n[nH]c(=O)c1C` [Example 82, 1-Cyclopropyl-4-{5-[(4,5-dimethyl-6-oxo-1,6-dihydropyridazin-3-yl)methyl]-2-fluorobenzoyl}-1,4-diazepan-2-one] had an IC50 of 25 to 150 nM.

Compound `Cc1c(Cc2ccc(F)c(C(=O)N3CCN(C4CCCCC4)C(=O)C3(C)C)c2)n[nH]c(=O)c1C` [Example 37, 3-{3-[(4-Cyclohexyl-2,2-dimethyl-3-oxopiperazin-1-yl)carbonyl]-4-fluorobenzyl}-4,5-dimethyl-6-oxo-1,6-dihydropyridazin-1-ium trifluoroacetate] came in with an IC50 of 25 to 150 nM.

For another assay, the system named is BRCA-1 silenced HeLa cells (HeLa shBRCA1-GFP). Description: Proliferation assay in BRCA-1 silenced HeLa cells. To be noted: Homo sapiens; BRCA1 silenced HeLa cells, 168 hours; read-out: CC50 in the BRCA1 silenced HeLa cells. Type of assay: cell-based. A digest of the protocol: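 Antiproliferative effect was read by Celltiter Blue fluorescence after 168 h of compound treatment at 37° C., 5% CO2. Cells were matched HeLa pairs, BRCA1-shRNA (>80% silenced, GFP) versus non-shRNA vector control, in DMEM with 10% FCS.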
In the case of `Cc1c(Cc2ccc(F)c(C(=O)N3CC(=O)N(c4ccc(Cl)cc4F)[C@H](C)C3)c2)n[nH]c(=O)c1C` [Example 196, 6-(3-{[(3R)-4-(4-Chloro-2-fluorophenyl)-3-methyl-5-oxopiperazin-1-yl]carbonyl}-4-fluorobenzyl)-4,5-dimethylpyridazin-3(2H)-one], the CC50 (as a rule, the concentration giving 50% cytotoxicity) was less than 50 nM.

Turning to `Cc1c(Cc2ccc(F)c(C(=O)N3CCN(c4ccc(F)c(Cl)c4)C(=O)C3)c2)n[nH]c(=O)c1C` [Example 10, 6-(3-{[4-(3-Chloro-4-fluorophenyl)-3-oxopiperazin-1-yl]carbonyl}-4-fluorobenzyl)-4,5-dimethyl-3-oxo-2,3-dihydropyridazin-1-ium trifluoroacetate], the CC50 was less than 50 nM.

Regarding `Cc1c(Cc2ccc(F)c(C(=O)N3CCN(c4cncc(C(F)(F)F)c4)C(=O)C3)c2)n[nH]c(=O)c1C` [Example 65, 3-[4-Fluoro-3-({3-oxo-4-[5-(trifluoromethyl)pyridin-3-yl]piperazin-1-yl}carbonyl)benzyl]-4,5-dimethyl-6-oxo-1,6-dihydropyridazin-1-ium trifluoroacetate], the CC50 lay within 50 to 500 nM.

As for `Cc1c(Cc2ccc(F)c(C(=O)N3CCN(c4cccs4)C(=O)C3)c2)n[nH]c(=O)c1C` [Example 44, 3-(4-Fluoro-3-{[3-oxo-4-(2-thienyl)piperazin-1-yl]carbonyl}benzyl)-4,5-dimethyl-6-oxo-1,6-dihydropyridazin-1-ium trifluoroacetate], the CC50 is less than 50 nM.

Turning to `Cc1c(Cc2ccc(F)c(C(=O)N3CCN(C4CCCc5ccccc54)C(=O)C3)c2)n[nH]c(=O)c1C` (centres unmarked) [Example 99, 6-(4-fluoro-3-{[3-oxo-4-(1,2,3,4-tetrahydronaphthalen-1-yl)piperazin-1-yl]carbonyl}benzyl)-4,5-dimethyl-3-oxo-2,3-dihydropyridazin-1-ium trifluoroacetate], the CC50 was less than 50 nM.

Turning to `Cc1c(Cc2ccc(F)c(C(=O)N3CC(=O)N(C4CCC4)C(C)C3)c2)n[nH]c(=O)c1C` (centres unmarked) [Example 163, 6-{3-[(4-Cyclobutyl-3-methyl-5-oxopiperazin-1-yl)carbonyl]-4-fluorobenzyl}-4,5-dimethylpyridazin-3(2H)-one], the CC50 was less than 50 nM.

With `COC[C@@H](C)N1CCN(C(=O)c2cc(Cc3n[nH]c(=O)c(C)c3C)ccc2F)CC1=O` [Example 179, 6-[4-Fluoro-3-({4-[(1R)-2-methoxy-1-methylethyl]-3-oxopiperazin-1-yl}carbonyl)benzyl]-4,5-dimethylpyridazin-3(2H)-one], the CC50 is less than 5000 nM.

With `COc1ccc(CN2CCN(C(=O)c3cc(Cc4n[nH]c(=O)c(C)c4C)ccc3F)CC2=O)cc1` [Example 20, 6-(4-Fluoro-3-{[4-(4-methoxybenzyl)-3-oxopiperazin-1-yl]carbonyl}benzyl)-4,5-dimethylpyridazin-3(2H)-one trifluoroacetate], the CC50 was 50 to 500 nM.

With `Cc1c(Cc2ccc(F)c(C(=O)N3CCN(c4ccc(F)c(F)c4)C(=O)C3)c2)n[nH]c(=O)c1C(F)(F)F` [Example 26, 3-(3-{[4-(3,4-Difluorophenyl)-3-oxopiperazin-1-yl]carbonyl}-4-fluorobenzyl)-4-methyl-6-oxo-5-(trifluoromethyl)-1,6-dihydropyridazin-1-ium trifluoroacetate], the CC50 is less than 50 nM.

On to `Cc1c(Cc2ccc(F)c(C(=O)N3CC(=O)N(c4cccs4)[C@H](C)C3)c2)n[nH]c(=O)c1C` [Example 195, 6-(4-Fluoro-3-{[(3R)-3-methyl-5-oxo-4-(2-thienyl)piperazin-1-yl]carbonyl}benzyl)-4,5-dimethylpyridazin-3(2H)-one], for which the CC50 was less than 50 nM.

For `Cc1c(Cc2ccc(F)c(C(=O)N3CCN(C4COC5(CCCC5)C4)C(=O)C3)c2)n[nH]c(=O)c1C` (centres unmarked) [Example 106, 6-(4-Fluoro-3-{[4-(1-oxaspiro[4.4]non-3-yl)-3-oxopiperazin-1-yl]carbonyl}benzyl)-4,5-dimethylpyridazin-3(2H)-one trifluoroacetate], the CC50 fell in the range of 50 to 500 nM.

For `Cc1c(Cc2ccc(F)c(C(=O)N3CC(=O)N(c4ccc(F)c(Cl)c4)[C@H](C)C3)c2)n[nH]c(=O)c1C` [Example 199, 6-(3-{[(3R)-4-(3-Chloro-4-fluorophenyl)-3-methyl-5-oxopiperazin-1-yl]carbonyl}-4-fluorobenzyl)-4,5-dimethylpyridazin-3(2H)-one], the CC50 is less than 50 nM.

`Cc1c(Cc2ccc(F)c(C(=O)N3CCN([C@@H]4CCCOC4)C(=O)C3)c2)n[nH]c(=O)c1C` [Example 104, 6-[4-fluoro-3-({3-oxo-4-[(3R)-tetrahydro-2H-pyran-3-yl]piperazin-1-yl}carbonyl)benzyl]-4,5-dimethylpyridazin-3(2H)-one]: the CC50 is less than 50 nM.

For the compound `CCc1c(Cc2ccc(F)c(C(=O)N3CCN(C4CCCCC4)C(=O)C3)c2)n[nH]c(=O)c1C` [Example 28, 3-{3-[(4-Cyclohexyl-3-oxopiperazin-1-yl)carbonyl]-4-fluorobenzyl}-4-ethyl-5-methyl-6-oxo-1,6-dihydropyridazin-1-ium trifluoroacetate], the 50% cytotoxic concentration (CC50) was 50 to 500 nM.

On to `CCc1cc(Cc2ccc(F)c(C(=O)N3CCN(C4CCCCC4)C(=O)C3)c2)n[nH]c1=O` [Example 6, 6-{3-[(4-Cyclohexyl-3-oxopiperazin-1-yl)carbonyl]-4-fluorobenzyl}-4-ethylpyridazin-3(2H)-one trifluoroacetate], for which the CC50 fell in the range of 50 to 500 nM.

With `Cc1c(Cc2ccc(F)c(C(=O)N3CC(=O)N(C4CCC(C)(C)CC4)C(C)C3)c2)n[nH]c(=O)c1C` (centres unmarked) [Example 128, 6-(3-{[4-(4,4-Dimethylcyclohexyl)-3-methyl-5-oxopiperazin-1-yl]carbonyl}-4-fluorobenzyl)-4,5-dimethylpyridazin-3(2H)-one trifluoroacetate], the CC50 is less than 50 nM.

As to `C[C@H]1CCC[C@H]2CN(C(=O)c3cc(Cc4cc(C(F)(F)F)c(=O)[nH]n4)ccc3F)CC(=O)N21` (single isomer, unassigned) [88 (VV1)], the CC50 was less than 50 nM.

`COC[C@H](C)N1CCN(C(=O)c2cc(Cc3n[nH]c(=O)c(C)c3C)ccc2F)CC1=O` [Example 169, 6-[4-Fluoro-3-({4-[(1S)-2-methoxy-1-methylethyl]-3-oxopiperazin-1-yl}carbonyl)benzyl]-4,5-dimethylpyridazin-3(2H)-one]: the CC50 was less than 5000 nM.

As to `Cc1c(Cc2ccc(F)c(C(=O)N3CC(=O)N(c4cc(F)cc(Cl)c4)[C@H](C)C3)c2)n[nH]c(=O)c1C` [Example 198, 6-(3-{[(3R)-4-(3-Chloro-5-fluorophenyl)-3-methyl-5-oxopiperazin-1-yl]carbonyl}-4-fluorobenzyl)-4,5-dimethylpyridazin-3(2H)-one], the CC50 is less than 50 nM.

Turning to `CCN1C(=O)CN(C(=O)c2cc(Cc3n[nH]c(=O)c(C(F)(F)F)c3C)ccc2F)C[C@H]1C` [Example 156, 6-(3-{[(3R)-4-ethyl-3-methyl-5-oxopiperazin-1-yl]carbonyl}-4-fluorobenzyl)-5-methyl-4-(trifluoromethyl)pyridazin-3(2H)-one], the CC50 was less than 50 nM.

For `Cc1nc(C)c(N2CCN(C(=O)c3cc(Cc4n[nH]c(=O)c(C)c4C)ccc3F)CC2=O)s1` [Example 117, 3-(3-{[4-(2,4-Dimethyl-1,3-thiazol-5-yl)-3-oxopiperazin-1-yl]carbonyl}-4-fluorobenzyl)-4,5-dimethyl-6-oxo-1,6-dihydropyridazin-1-ium trifluoroacetate], the CC50 was 50 to 500 nM.

For the compound `Cc1c(Cc2ccc(F)c(C(=O)N3CCN(c4ccccc4)C(=O)C3)c2)n[nH]c(=O)c1C` [Example 1, 6-{4-Fluoro-3-[(3-oxo-4-phenylpiperazin-1-yl)carbonyl]benzyl}-4,5-dimethyl-3-oxo-2,3-dihydropyridazin-1-ium trifluoroacetate], the CC50 is less than 50 nM.
